Measurements: patent US20230021483A1, “[…] […] METHOD AND CLASSIFICATION OF PHARMACEUTICAL COMPONENTS BY USING TRANSCRIPTOMES” (National Institutes of Biomedical Innovation, Health and …, priority 2016, published 2023)

Test system: preferentially upregulated genes in LV, SP, LN
Assay: Z-score-based differential gene expression analysis (adjuvant group- or adjuvant-associated genes, 40 module mapping, TargetMine annotation)
Type: in vivo, C57BL/6 mice
Details: ID, LV
Method in brief: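 Per-sample fold-change values converted to gene-wise z-scores within each organ's data set, then triplicate z-scores summed per adjuvant. Genes with summed score >3 taken as preferentially expressed; gene groups defined by combined per-adjuvant z-score thresholds (z>1 to z>3) specific to each organ.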

With Poly_IC the “Adar 1425405_a_at (Group G1, Modules 20)” value (sample x1) was 3.45, the “Adar 1434268_at (Group G1, Modules 20)” value (sample x1) was 2.82 and the “Ddx58 1436562_at (Group G1, Modules 20)” value (sample x1) was 2.92. For the same substance, the “Ddx58 1456890_at (Group G1, Modules 20)” value (sample x1) was 3.02, the “Eif2ak2 1422005_at (Group G1, Modules 20)” value (“Eif2ak2 1422005_at” below) (sample x1) was 2.89 and the “G3bp2 1421323_a_at (Group G1, Modules 20)” value (“G3bp2 1421323_a_at” below) (sample x1) was 2.83. The “Gm9706///Isg15 1431591_s_at (Group G1, Modules 20)” value (“Gm9706///Isg15 1431591_s_at” below) (sample x1) was 3.28, the “H2-T10///H2-T22///H2-T9 1449875_s_at (Group G1, Modules 20)” value (“H2-T10///H2-T22///H2-T9 1449875_s_at” for short) (sample x1) was 2.89 and the “Ifih1 1426276_at (Group G1, Modules 20)” value (sample x1) was 3.06. The “Ifit1 1450783_at (Group G1, Modules 20)” value (sample x1) was 2.54, the “Ifit3 1449025_at (Group G1, Modules 20)” value (sample x1) was 3.24 and the “Irf7 1417244_a_at (Group G1, Modules 20)” value (sample x1) was 3.53. For the same substance, the “Irgm1 1418825_at (Group G1, Modules 20)” value (sample x1) was 2.78, the “Mndal 1426906_at (Group G1, Modules 20)” value (sample x1) was 3.14 and the “Pml 1448757_at (Group G1, Modules 20)” value (sample x1) was 3.58. The “Pml 1456103_at (Group G1, Modules 20)” value (sample x1) was 3.26, the “Rnf213 1455500_at (Group G1, Modules 20)” value (sample x1) was 2.64 and the “Rsad2 1436058_at (Group G1, Modules 20)” value (sample x1) was 3. The “Shisa5 1423986_a_at (Group G1, Modules 20)” value (shortened to “Shisa5 1423986_a_at”) (sample x1) was 2.5, the “Shisa5 1437503_a_at (Group G1, Modules 20)” value (shortened to “Shisa5 1437503_a_at”) (sample x1) was 2.49 and the “Stat1 1450033_a_at (Group G1, Modules 20)” value (shortened to “Stat1 1450033_a_at”) (sample x1) was 2.73. For the same substance, the “Stat1 1450034_at (Group G1, Modules 20)” value (sample x1) was 2.89, the “Tdrd7 1426716_at (Group G1, Modules 20)” value (sample x1) was 3.28 and the “Tor1aip2 1418115_s_at (Group G1, Modules 20)” value (from here on “Tor1aip2 1418115_s_at”) (sample x1) was 2.38. For the same substance, the “Tor1aip2 1418116_at (Group G1, Modules 20)” value (“Tor1aip2 1418116_at” below) (sample x1) was 2.73, the “Tor1aip2 1435526_at (Group G1, Modules 20)” value (“Tor1aip2 1435526_at” for short) (sample x1) was 2.88 and the “Trim12a 1437432_a_at (Group G1, Modules 20)” value (from here on “Trim12a 1437432_a_at”) (sample x1) was 3.39. For the same substance, the “Uba7 1426970_a_at (Group G1, Modules 20)” value (sample x1) was 3, the “Adar 1425405_a_at (Group G1, Modules 20)” value (sample x2) was 2.75 and the “Adar 1434268_at (Group G1, Modules 20)” value (sample x2) was 2.17. For the same substance, the “Ddx58 1436562_at (Group G1, Modules 20)” value (sample x2) was 2.82, the “Ddx58 1456890_at (Group G1, Modules 20)” value (sample x2) was 2.77 and the “Eif2ak2 1422005_at” value (sample x2) was 2.87. The “G3bp2 1421323_a_at” value (sample x2) was 2.85, the “Gm9706///Isg15 1431591_s_at” value (sample x2) was 3.62 and the “H2-T10///H2-T22///H2-T9 1449875_s_at” value (sample x2) was 3.28. The “Ifih1 1426276_at (Group G1, Modules 20)” value (sample x2) was 3.34, the “Ifit1 1450783_at (Group G1, Modules 20)” value (sample x2) was 2.35 and the “Ifit3 1449025_at (Group G1, Modules 20)” value (sample x2) was 3.25. For the same substance, the “Irf7 1417244_a_at (Group G1, Modules 20)” value (sample x2) was 3.38, the “Irgm1 1418825_at (Group G1, Modules 20)” value (sample x2) was 2.84 and the “Mndal 1426906_at (Group G1, Modules 20)” value (sample x2) was 2.4. The “Pml 1448757_at (Group G1, Modules 20)” value (sample x2) was 3.3, the “Pml 1456103_at (Group G1, Modules 20)” value (sample x2) was 2.5 and the “Rnf213 1455500_at (Group G1, Modules 20)” value (sample x2) was 3.01. The “Rsad2 1436058_at (Group G1, Modules 20)” value (sample x2) was 3.3, the “Shisa5 1423986_a_at” value (sample x2) was 2.99 and the “Shisa5 1437503_a_at” value (sample x2) was 2.66. For the same substance, the “Stat1 1450033_a_at” value (sample x2) was 2.67, the “Stat1 1450034_at (Group G1, Modules 20)” value (sample x2) was 3.04 and the “Tdrd7 1426716_at (Group G1, Modules 20)” value (sample x2) was 3.24. The “Tor1aip2 1418115_s_at” value (sample x2) was 2.68, the “Tor1aip2 1418116_at” value (sample x2) was 2.94 and the “Tor1aip2 1435526_at” value (sample x2) was 2.62. The “Trim12a 1437432_a_at” value (sample x2) was 3.59, the “Uba7 1426970_a_at (Group G1, Modules 20)” value (sample x2) was 3.13 and the “Adar 1425405_a_at (Group G1, Modules 20)” value (sample x3) was 1.58. For the same substance, the “Adar 1434268_at (Group G1, Modules 20)” value (sample x3) was 1.28, the “Ddx58 1436562_at (Group G1, Modules 20)” value (sample x3) was 1.64 and the “Ddx58 1456890_at (Group G1, Modules 20)” value (sample x3) was 1.87. For the same substance, the “Eif2ak2 1422005_at” value (sample x3) was 1.83, the “G3bp2 1421323_a_at” value (sample x3) was 1.31 and the “Gm9706///Isg15 1431591_s_at” value (sample x3) was 2.13. For the same substance, the “H2-T10///H2-T22///H2-T9 1449875_s_at” value (sample x3) was 2.21, the “Ifih1 1426276_at (Group G1, Modules 20)” value (sample x3) was 2.12 and the “Ifit1 1450783_at (Group G1, Modules 20)” value (sample x3) was 1.28. For the same substance, the “Ifit3 1449025_at (Group G1, Modules 20)” value (sample x3) was 1.95, the “Irf7 1417244_a_at (Group G1, Modules 20)” value (sample x3) was 2.38 and the “Irgm1 1418825_at (Group G1, Modules 20)” value (sample x3) was 1.84. For the same substance, the “Mndal 1426906_at (Group G1, Modules 20)” value (sample x3) was 2.37, the “Pml 1448757_at (Group G1, Modules 20)” value (sample x3) was 2 and the “Pml 1456103_at (Group G1, Modules 20)” value (sample x3) was 2.12. The “Rnf213 1455500_at (Group G1, Modules 20)” value (sample x3) was 1.47, the “Rsad2 1436058_at (Group G1, Modules 20)” value (sample x3) was 1.97 and the “Shisa5 1423986_a_at” value (sample x3) was 1.61. For the same substance, the “Shisa5 1437503_a_at” value (sample x3) was 1.52, the “Stat1 1450033_a_at” value (sample x3) was 1.92 and the “Stat1 1450034_at (Group G1, Modules 20)” value (sample x3) was 1.94. For the same substance, the “Tdrd7 1426716_at (Group G1, Modules 20)” value (sample x3) was 1.44, the “Tor1aip2 1418115_s_at” value (sample x3) was 1.13 and the “Tor1aip2 1418116_at” value (sample x3) was 0.96. The “Tor1aip2 1435526_at” value (sample x3) was 1.58, the “Trim12a 1437432_a_at” value (sample x3) was 2.9 and the “Uba7 1426970_a_at (Group G1, Modules 20)” value (sample x3) was 1.71.
